Measured values published in patent US11021444B2, “Antiviral compounds” (priority 2013, dated 2021).
Like-named read-outs stand apart in the source and are kept apart here.

How the values were obtained:
[1] = tested on: Respiratory Syncytial Virus (RSV) long strain; assay: microbe, parasite or virus in culture; type: cell-based; settings: human respiratory syncytial virus, Tables A and B list compounds by EC50 band
Procedure: (§1) CPE reduction assays are performed as described by Sidwell and Huffman et al., Appl. Microbiol. (1971) 22(5):797-801 with slight modifications. HEp-2 cells (ATCC #, CCL-23) are seeded at a density of 1,500 cells/30 μl/well into the 384-well cell plate(s) (Corning #3701) one day prior to the assay. Compounds are added into 384-well cell plates by Labcyte POD 810 Plate Assembler system. Each of the test compounds is provided to duplicate wells of a 384-well cell plate at final concentrations starting from 100 μM or 1 μM using 1/3 stepwise dilutions for 9 points. Quick-thaw Respiratory Syncytial Virus (RSV) long strain (ATCC #VR-26) stock in a 37° C. water bath. Place on ice until ready to use. Viruses are diluted to the concentration of 100 TCID50/30 μL with medium and 30 μl diluted RSV are added into related wells of 384-well cell plates. For each plate, sixteen wells are set aside as uninfected, untreated cell controls (CC), and nine wells per test plate receive virus only as a control for virus replication (VC). The final DMSO concentration of all wells is 1%. Place the plates at 37° C., 5% CO2 for 5 days.
After 5 days incubation, observe the CPE of cells in all wells. […] Six μl of cell counting kit-8 reagent (CCK-8, Dojindo Molecular Technologies Inc., CK04-20) are added to each well, which allows colorimetric assays to determine the number of viable cells through the dehydrogenase activity detection. After 3-4 hour incubation, the absorbance of each well is measured with a spectrophotometric plate reader at 450 nm wavelength, using a 630 nm filter as background according to manufacturer's instruction.

[2] = Cytotoxicity Determination (CCK-8, without addition of virus); type: cell-based; settings: human, 50% cytotoxicity concentration (CC50)
Procedure: as §1
In order to determine the compound cytotoxicity, in parallel, each of the compounds is applied to duplicate wells in a 384-well cell plate at serial final concentrations starting from 100 μM using 1/2 stepwise dilutions for 7 points without addition of virus. Incubate the cells at 37° C., 5% CO2 for 5 days. Add 6 μL CCK-8 into each well and incubate in a CO2 incubator at 37° C. for 3-4 hours.

recombinant RSV complex = recombinant RSV complex (Human respiratory syncytial virus A, UniProt P28887); assay: RSV Polymerase Inhibition Assay; type: biochemical
Chain of recombinant RSV complex (P28887 whole entry): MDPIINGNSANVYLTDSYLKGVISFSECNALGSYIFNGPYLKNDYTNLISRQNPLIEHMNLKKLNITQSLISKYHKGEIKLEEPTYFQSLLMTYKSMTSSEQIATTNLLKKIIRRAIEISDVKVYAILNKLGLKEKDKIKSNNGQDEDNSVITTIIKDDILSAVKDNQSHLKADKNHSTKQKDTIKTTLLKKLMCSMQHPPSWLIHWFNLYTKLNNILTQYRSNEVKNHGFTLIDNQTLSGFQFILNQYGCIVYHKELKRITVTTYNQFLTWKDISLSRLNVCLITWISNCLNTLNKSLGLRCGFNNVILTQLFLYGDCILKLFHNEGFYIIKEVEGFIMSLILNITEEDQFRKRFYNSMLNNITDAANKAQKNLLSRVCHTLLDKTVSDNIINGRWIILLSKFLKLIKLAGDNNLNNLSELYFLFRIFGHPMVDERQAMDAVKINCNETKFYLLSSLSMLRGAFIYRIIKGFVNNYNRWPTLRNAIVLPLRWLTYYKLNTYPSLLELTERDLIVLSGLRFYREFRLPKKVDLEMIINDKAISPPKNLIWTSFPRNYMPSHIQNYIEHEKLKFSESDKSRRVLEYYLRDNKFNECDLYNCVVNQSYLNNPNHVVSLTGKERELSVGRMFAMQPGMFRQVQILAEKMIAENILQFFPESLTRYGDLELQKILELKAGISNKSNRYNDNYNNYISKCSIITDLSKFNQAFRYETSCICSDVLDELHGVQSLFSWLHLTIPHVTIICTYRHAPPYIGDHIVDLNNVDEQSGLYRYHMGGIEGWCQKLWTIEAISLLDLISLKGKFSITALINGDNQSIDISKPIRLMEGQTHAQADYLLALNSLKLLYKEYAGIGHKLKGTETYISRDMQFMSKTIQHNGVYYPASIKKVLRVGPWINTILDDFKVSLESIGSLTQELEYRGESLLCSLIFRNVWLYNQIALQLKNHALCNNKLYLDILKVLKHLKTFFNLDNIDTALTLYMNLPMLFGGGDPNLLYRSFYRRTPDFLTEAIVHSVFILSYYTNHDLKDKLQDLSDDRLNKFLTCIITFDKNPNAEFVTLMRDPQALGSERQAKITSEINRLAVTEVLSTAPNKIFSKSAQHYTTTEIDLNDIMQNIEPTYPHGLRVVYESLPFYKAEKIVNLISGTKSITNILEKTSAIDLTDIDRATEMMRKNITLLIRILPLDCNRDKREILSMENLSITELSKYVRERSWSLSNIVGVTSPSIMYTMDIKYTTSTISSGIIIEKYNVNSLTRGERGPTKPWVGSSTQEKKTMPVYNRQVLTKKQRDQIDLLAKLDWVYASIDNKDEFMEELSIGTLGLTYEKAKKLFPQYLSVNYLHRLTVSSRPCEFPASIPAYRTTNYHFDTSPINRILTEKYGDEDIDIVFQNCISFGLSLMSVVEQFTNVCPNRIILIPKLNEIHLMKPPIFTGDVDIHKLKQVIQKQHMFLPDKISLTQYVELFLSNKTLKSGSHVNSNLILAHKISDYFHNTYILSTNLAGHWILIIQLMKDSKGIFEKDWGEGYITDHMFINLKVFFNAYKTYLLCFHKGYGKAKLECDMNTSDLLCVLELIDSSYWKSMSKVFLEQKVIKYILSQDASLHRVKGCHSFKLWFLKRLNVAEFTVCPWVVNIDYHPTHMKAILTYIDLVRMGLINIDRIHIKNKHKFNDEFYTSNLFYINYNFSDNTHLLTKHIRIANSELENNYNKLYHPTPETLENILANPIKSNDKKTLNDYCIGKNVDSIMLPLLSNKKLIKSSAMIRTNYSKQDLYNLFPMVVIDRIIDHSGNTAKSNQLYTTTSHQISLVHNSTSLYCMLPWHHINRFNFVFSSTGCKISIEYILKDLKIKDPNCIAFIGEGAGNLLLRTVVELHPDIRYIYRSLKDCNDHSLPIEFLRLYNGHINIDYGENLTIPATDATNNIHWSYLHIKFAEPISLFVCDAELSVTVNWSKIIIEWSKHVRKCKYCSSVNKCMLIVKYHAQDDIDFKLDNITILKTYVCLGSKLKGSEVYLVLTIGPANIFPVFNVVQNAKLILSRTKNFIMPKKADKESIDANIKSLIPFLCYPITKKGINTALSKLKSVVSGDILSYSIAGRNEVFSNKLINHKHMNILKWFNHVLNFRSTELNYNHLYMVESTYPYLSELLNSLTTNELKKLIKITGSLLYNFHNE
Chain of recombinant RSV complex (P03421 whole entry, further chain): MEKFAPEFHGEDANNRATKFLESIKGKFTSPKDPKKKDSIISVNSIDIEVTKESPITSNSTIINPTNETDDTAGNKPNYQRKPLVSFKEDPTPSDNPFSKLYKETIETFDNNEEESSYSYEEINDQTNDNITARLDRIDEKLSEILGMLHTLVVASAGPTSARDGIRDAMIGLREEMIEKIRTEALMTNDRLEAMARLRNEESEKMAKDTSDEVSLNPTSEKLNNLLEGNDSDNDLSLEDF
Summary of the method: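 Inhibition measured as reduced incorporation of radiolabel into RNA products, detected by scintillation counting. Reactions: recombinant RSV complex (10 nM), RNA oligonucleotides, Tris-HCl pH 7.5, 6 mM MgCl2, inhibitor titration, 2 h at 30 °C, EDTA stop.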

[3] = HEp-2, 120 h, read-out: 50% effective concentration (EC50), HEp-2 cells infected with RSV long strain, 5 days, CCK-8 readout
[4] = 120 h, read-out: 50% effective concentration (EC50), HEp-2 cells infected with RSV long strain, 5 days, CCK-8 readout

Row | SMILES | EC50 [1, 3] [µM] | CC50 at 5 days [2] [µM] | IC50 (recombinant RSV complex) [µM] | EC50 [1, 4] [µM]
1 | COc1cc(C(=O)NCC(C)(O)c2ccc(OC)c(-c3ccc(F)c(Br)c3)n2)ccc1OCCO (stereo not drawn) [Compound 167] | < 1 | 10 to 100 | < 1 | –
2 | COc1ccc(C(=O)NCC(C)(O)c2ccc(OC)c(-c3ccc(F)c(Cl)c3)n2)cc1 (stereo not drawn) [Compound 174] | 1 to 50 | 10 to 100 | < 10 | –
3 | COc1ccc(C(C)(O)CNC(=O)c2ccc(-c3nc(C)no3)cc2)nc1-c1ccc(F)c(Cl)c1 (stereo not drawn) [Compound 175] | 1 to 50 | > 100 | < 10 | –
4 | CNCC(O)(CNC(=O)c1ccc(OCCO)c(OC)c1)c1ccc(OC)c(-c2ccc(F)c(Cl)c2)n1 (stereo not drawn) [Compound 177] | 1 to 50 | > 100 | < 10 | –
5 | COc1cc(C(=O)NCC(O)(CN(C)C)c2ccc(OC)c(-c3ccc(F)c(Cl)c3)n2)ccc1OCCO (stereo not drawn) [Compound 178] | 1 to 50 | > 100 | < 100 | –
6 | COc1cc(C(=O)NCC(O)(CN)c2ccc(OC)c(-c3ccc(F)c(Cl)c3)n2)ccc1OCCO (stereo not drawn) [Compound 179] | 1 to 50 | > 100 | < 1 | –
7 | COc1cc(C(=O)NCC(O)(CN2CCOCC2)c2ccc(OC)c(-c3ccc(F)c(Cl)c3)n2)ccc1OCCO (stereo not drawn) [Compound 181] | < 1 | > 100 | < 1 | –
8 | COc1cc(C(=O)NCC(O)(CN2CCNC(=O)C2)c2ccc(OC)c(-c3ccc(F)c(Cl)c3)n2)ccc1OCCO (stereo not drawn) [Compound 182] | < 1 | > 100 | < 1 | –
9 | COc1cc(C(=O)NCC(O)(CN2CCCC2)c2ccc(OC)c(-c3ccc(F)c(Cl)c3)n2)ccc1OCCO (stereo not drawn) [Compound 187] | 1 to 50 | > 100 | < 10 | –
10 | COc1cc(C(=O)NCC(O)(CN2CCNCC2)c2ccc(OC)c(-c3ccc(F)c(Cl)c3)n2)ccc1OCCO (stereo not drawn) [Compound 190] | – | > 100 | < 1 | 1 to 50
11 | COc1cc(C(=O)NCC(O)(CN2CCNCC2=O)c2ccc(OC)c(-c3ccc(F)c(Cl)c3)n2)ccc1OCCO (stereo not drawn) [Compound 196] | 1 to 50 | > 100 | < 1 | –
12 | COc1cc(C(=O)NCC(O)(c2cn(C)nn2)c2ccc(OC)c(-c3ccc(F)c(Cl)c3)n2)ccc1OCCO (stereo not drawn) [Compound 199] | < 1 | > 100 | < 1 | –
13 | CC1(C)COc2c1cc(C(O)(CNC(=O)c1cc(O)c3ncccc3c1)C(F)(F)F)nc2-c1ccc(F)c(Cl)c1 (stereo not drawn) [Compound 207] | 1 to 50 | 10 to 100 | < 1 | –
14 | COc1cc(C(=O)NCC(O)(c2cc3c(c(-c4ccc(F)c(Cl)c4)n2)OCC3(C)C)C(F)(F)F)ccc1OCC(N)=O (stereo not drawn) [Compound 210] | – | 10 to 100 | < 1 | < 1
15 | COc1cc(C(=O)NCC(O)(c2cc3c(c(-c4ccc(F)c(Cl)c4)n2)OCC3(C)C)C(F)(F)F)cc2ccc(C)nc12 (stereo not drawn) [Compound 213] | < 1 | > 100 | < 1 | –
16 | COc1cc(C(=O)NCC(O)(c2cc3c(c(-c4ccc(F)c(Cl)c4)n2)OCC3(C)C)C(F)(F)F)cc2ccc(C(N)=O)nc12 (stereo not drawn) [Compound 214] | < 1 | 10 to 100 | < 1 | –
17 | COc1cc(C(=O)NCC(O)(c2cc3c(c(-c4ccc(F)c(Cl)c4)n2)OCC3(C)C)C(F)(F)F)cc2ccc(C#N)nc12 (stereo not drawn) [Compound 215] | 1 to 50 | 10 to 100 | < 1 | –

Row | SMILES | EC50 [1, 3] [µM] | CC50 at 5 days [2] [µM] | IC50 (recombinant RSV complex) [µM] | EC50 [1, 4] [µM]
18 | COc1cc(C(=O)NCC(O)(c2cc3c(c(-c4ccc(F)c(Cl)c4)n2)OCC3(C)C)C(F)(F)F)ccc1CN1CCNC1=O (stereo not drawn) [Compound 216] | 1 to 50 | 10 to 100 | < 10 | –
19 | COc1cc(C(=O)NCC(=O)c2cc3c(c(-c4ccc(F)c(Cl)c4)n2)OCC3(C)C)ccc1OC1CCNC1=O (stereo not drawn) [Compound 217] | < 1 | 10 to 100 | < 1 | –
20 | COc1cc(C(=O)NCC(O)(CO)c2cc3c(c(-c4ccc(F)c(Cl)c4)n2)OCC3(C)C)ccc1OC1CCNC1=O (stereo not drawn) [Compound 219] | < 1 | 10 to 100 | < 1 | –
21 | COc1cc(C(=O)NCC(O)(CO)c2cc3c(c(-c4ccc(F)c(Cl)c4)n2)OCC3(C)C)cc2cccnc12 (stereo not drawn) [Compound 221] | < 1 | 10 to 100 | < 1 | –
22 | COc1cc(C(=O)NCC(=O)c2cc3c(c(-c4ccc(F)c(Cl)c4)n2)OCC3(C)C)ccc1OC1CCN(C)C1=O (stereo not drawn) [Compound 222] | < 1 | 10 to 100 | < 1 | –
23 | COc1cc(C(=O)NCC(C)(O)c2cc3c(c(-c4ccc(F)c(Cl)c4)n2)OCC3(C)C)ccc1OCCF (stereo not drawn) [Compound 227] | < 1 | 10 to 100 | < 1 | –
24 | COc1cc(C(=O)NCC(O)(c2ccc(OC)c(-c3ccc(F)c(Cl)c3)n2)C(F)(F)F)ccc1OCC(F)(F)F (stereo not drawn) [Compound 233] | 1 to 50 | > 100 | < 1 | –
25 | COc1cc(C(=O)NCC(O)(c2ccc(OC)c(-c3ccc(F)c(Cl)c3)n2)C(F)(F)F)ccc1OCC(C)(F)F (stereo not drawn) [Compound 234] | < 1 | > 100 | < 1 | –
26 | COc1cc(C(=O)NCC(O)(c2ccc(OC)c(-c3ccc(F)c(Cl)c3)n2)C(F)(F)F)ccc1OC1CCOC1 (stereo not drawn) [Compound 235] | < 1 | 10 to 100 | < 1 | –
27 | COc1cc(C(=O)NCC(O)(c2ccc(OC)c(-c3ccc(F)c(Cl)c3)n2)C(F)(F)F)ccc1OC1CCCC1 (stereo not drawn) [Compound 236] | 1 to 50 | > 100 | < 1 | –
28 | COc1ccc(C(O)(CNC(=O)c2ccc(OC3CC3)c(Cl)c2)C(F)(F)F)nc1-c1ccc(F)c(Cl)c1 (stereo not drawn) [Compound 251] | 1 to 50 | 10 to 100 | < 1 | –
29 | COc1ccc(C(O)(CNC(=O)c2ccc3ncccc3c2)C(F)(F)F)nc1-c1ccc(F)c(Cl)c1 (stereo not drawn) [Compound 252] | 1 to 50 | 10 to 100 | < 1 | –
30 | COc1ccc(C(O)(CNC(=O)c2ccc3[nH]cnc3c2)C(F)(F)F)nc1-c1ccc(F)c(Cl)c1 (stereo not drawn) [Compound 253] | 1 to 50 | 10 to 100 | < 10 | –
31 | COc1ccc(C(O)(CNC(=O)c2ccc3ncsc3c2)C(F)(F)F)nc1-c1ccc(F)c(Cl)c1 (stereo not drawn) [Compound 254] | 1 to 50 | 10 to 100 | < 1 | –
32 | COc1cc(C(=O)NCC(O)(c2ccc(OC)c(-c3ccc(F)c(Cl)c3)n2)C(F)(F)F)ccc1OC1CCCC1=O (stereo not drawn) [Compound 257] | < 1 | 10 to 100 | < 1 | –
33 | COc1ccc(C(O)(CNC(=O)c2ccc3c(c2)NC(=O)CO3)C(F)(F)F)nc1-c1ccc(F)c(Cl)c1 (stereo not drawn) [Compound 258] | < 1 | 10 to 100 | < 1 | –
